Legend:
MV4-11 = assay: Proliferation assay (MTT, leukaemia cancer cell line); format: cell-based; conditions: Homo sapiens; 1 µM compound, MV4-11 cells
From the text: Compounds from Example 1 were subjected to standard resazurin and MTT assays on solid tumour and leukaemia cancer cell lines, respectively, as previously reported (Wang S et al., J Med Chem 47:1662-1675, 2004 and Diab S et al., CheMedChem 9:962-972, 2014).

FLT3-ITD = assay: ADP Glo Kinase assay; format: biochemical; conditions: 1 µM compound
Procedure: (§1) Inhibition of CDKs and FLT3 were determined using ADP Glo Kinase assays, as previously described in International Patent Publication No WO 2017/020065.

CDK2E = CDK2E (Homo sapiens, UniProt P24941); assay: ADP Glo Kinase assay; format: biochemical; conditions: 1 µM compound; read-out: % Residual enzymatic activity at 1 µM CDK2E
Procedure: as §1

CDK4D1 = CDK4D1 (Homo sapiens, UniProt P11802); assay: ADP Glo Kinase assay; format: biochemical; conditions: 1 µM compound; read-out: % Residual enzymatic activity at 1 µM CDK4D1
Procedure: as §1

Mer = target: T1, Mer (Homo sapiens, UniProt Q12866); assay: Filter-binding radiometric kinase activity assay (KinaseProfiler, Eurofins); format: biochemical; conditions: 1 µM compound; read-out: % Residual enzymatic activity at 1 µM Mer
T1 construct: purchased Eurofins Discovery (Kinase Profiler service)
T1 sequence (Q12866 21-999): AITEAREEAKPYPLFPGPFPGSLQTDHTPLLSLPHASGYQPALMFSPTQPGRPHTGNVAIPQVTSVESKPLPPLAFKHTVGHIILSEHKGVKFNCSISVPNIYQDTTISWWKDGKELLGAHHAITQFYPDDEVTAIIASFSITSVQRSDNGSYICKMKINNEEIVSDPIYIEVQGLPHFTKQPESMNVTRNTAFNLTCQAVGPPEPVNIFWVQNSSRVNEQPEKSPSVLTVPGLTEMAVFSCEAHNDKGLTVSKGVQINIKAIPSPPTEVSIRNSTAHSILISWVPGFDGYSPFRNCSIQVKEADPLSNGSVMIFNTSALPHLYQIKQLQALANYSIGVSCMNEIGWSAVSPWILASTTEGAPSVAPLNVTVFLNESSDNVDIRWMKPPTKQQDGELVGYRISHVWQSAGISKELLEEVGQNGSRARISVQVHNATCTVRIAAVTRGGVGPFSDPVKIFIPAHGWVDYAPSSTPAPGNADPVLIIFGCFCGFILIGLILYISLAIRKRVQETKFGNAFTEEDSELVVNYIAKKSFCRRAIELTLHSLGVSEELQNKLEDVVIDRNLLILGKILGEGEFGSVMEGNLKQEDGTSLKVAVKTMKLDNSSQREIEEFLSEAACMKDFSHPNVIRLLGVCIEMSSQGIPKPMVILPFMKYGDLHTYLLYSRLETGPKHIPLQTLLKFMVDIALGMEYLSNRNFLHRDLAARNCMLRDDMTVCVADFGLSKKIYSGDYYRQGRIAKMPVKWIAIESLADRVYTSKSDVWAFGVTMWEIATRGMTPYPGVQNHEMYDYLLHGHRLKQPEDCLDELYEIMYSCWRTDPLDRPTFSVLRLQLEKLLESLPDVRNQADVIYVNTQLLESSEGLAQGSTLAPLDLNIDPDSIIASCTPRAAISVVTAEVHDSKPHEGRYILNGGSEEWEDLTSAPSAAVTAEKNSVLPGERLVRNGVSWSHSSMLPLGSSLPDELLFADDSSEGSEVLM

AXL = target: T2, AXL (Homo sapiens, UniProt P30530); assay: as above; format: biochemical; conditions: 1 µM compound; read-out: % Residual enzymatic activity at 1 µM AXL
T2 construct: purchased Eurofins Discovery (Kinase Profiler service)
T2 sequence (P30530 26-894): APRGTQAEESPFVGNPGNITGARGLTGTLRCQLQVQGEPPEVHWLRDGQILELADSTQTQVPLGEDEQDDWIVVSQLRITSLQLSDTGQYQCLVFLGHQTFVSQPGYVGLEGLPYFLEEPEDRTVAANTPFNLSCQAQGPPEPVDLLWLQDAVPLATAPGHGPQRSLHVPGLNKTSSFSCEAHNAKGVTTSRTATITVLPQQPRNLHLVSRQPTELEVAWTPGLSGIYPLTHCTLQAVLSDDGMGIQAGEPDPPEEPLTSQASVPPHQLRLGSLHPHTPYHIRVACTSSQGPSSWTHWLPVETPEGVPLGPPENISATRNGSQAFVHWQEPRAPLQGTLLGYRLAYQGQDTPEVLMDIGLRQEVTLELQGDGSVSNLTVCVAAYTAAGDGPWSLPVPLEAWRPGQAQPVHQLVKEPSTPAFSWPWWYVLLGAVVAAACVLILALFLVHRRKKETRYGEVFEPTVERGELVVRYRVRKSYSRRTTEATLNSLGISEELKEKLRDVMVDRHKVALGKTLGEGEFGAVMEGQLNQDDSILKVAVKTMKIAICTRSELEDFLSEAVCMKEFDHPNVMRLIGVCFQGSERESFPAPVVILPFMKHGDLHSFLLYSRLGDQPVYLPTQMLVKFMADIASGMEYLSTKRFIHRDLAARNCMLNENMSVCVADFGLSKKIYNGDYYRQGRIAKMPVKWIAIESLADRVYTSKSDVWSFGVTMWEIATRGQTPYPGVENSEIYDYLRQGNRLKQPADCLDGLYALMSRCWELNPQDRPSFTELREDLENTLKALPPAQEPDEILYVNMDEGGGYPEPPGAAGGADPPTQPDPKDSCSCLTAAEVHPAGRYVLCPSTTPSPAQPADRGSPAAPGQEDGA

Chain of CDK4D1 (P11802 whole entry): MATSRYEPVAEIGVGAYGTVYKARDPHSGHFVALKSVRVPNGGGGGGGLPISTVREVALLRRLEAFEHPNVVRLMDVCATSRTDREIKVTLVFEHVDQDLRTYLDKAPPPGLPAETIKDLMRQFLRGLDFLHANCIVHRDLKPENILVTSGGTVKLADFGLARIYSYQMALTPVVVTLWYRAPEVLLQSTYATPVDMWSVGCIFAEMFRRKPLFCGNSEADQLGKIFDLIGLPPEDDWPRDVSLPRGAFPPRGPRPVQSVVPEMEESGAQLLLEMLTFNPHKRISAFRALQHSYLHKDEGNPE
Chain of CDK4D1 (P24385 whole entry partner): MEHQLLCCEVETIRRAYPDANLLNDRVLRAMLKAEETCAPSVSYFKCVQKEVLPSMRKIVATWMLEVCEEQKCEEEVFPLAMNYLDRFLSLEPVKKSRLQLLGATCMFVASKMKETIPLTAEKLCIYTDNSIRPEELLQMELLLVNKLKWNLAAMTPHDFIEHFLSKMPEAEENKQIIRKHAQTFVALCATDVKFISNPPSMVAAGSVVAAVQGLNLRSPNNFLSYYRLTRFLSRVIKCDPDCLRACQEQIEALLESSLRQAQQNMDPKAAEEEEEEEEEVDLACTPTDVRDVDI

Structure (SMILES)	activity at 1 µM (MV4-11)	% Residual enzymatic activity at 1 µM FLT3-ITD (FLT3-ITD)	remaining activity at 1 µM (CDK2E)	remaining activity at 1 µM (CDK4D1)	remaining activity at 1 µM (Mer)	remaining activity at 1 µM (AXL)
Nc1ncnc(Oc2ccc(NC(=O)c3cccn(-c4ccc(F)cc4)c3=O)cc2F)c1F [Cmpd 1, N-(4-((6-amino-5-fluoropyrimidin-4-yl)oxy)-3-fluorophenyl)-1-(4-fluorophenyl)-2-oxo-1,2-dihydropyridine-3-carboxamide]	3%	50%	99%	40%	12%	13%
Nc1ncnc(Oc2ccc(NC(=O)c3cccn(-c4ccc(F)cc4)c3=O)cc2F)c1Cl [Cmpd 3, N-(4-((6-amino-5-chloropyrimidin-4-yl)oxy)-3-fluorophenyl)-1-(4-fluorophenyl)-2-oxo-1,2-dihydropyridine-3-carboxamide]	3%	49%	96%	69%	6%	4%
Nc1ncnc(Oc2ccc(NC(=O)c3cccn(-c4ccc(F)cc4)c3=O)cc2)c1Cl [Cmpd 4, N-(4-((6-amino-5-chloropyrimidin-4-yl)oxy)phenyl)-1-(4-fluorophenyl)-2-oxo-1,2-dihydropyridine-3-carboxamide]	6%	33%	97%	48%	19%	-1%
Nc1ncnc(Oc2ccc(NC(=O)c3cccn(-c4ccc(F)cc4)c3=O)c(F)c2)c1Cl [Cmpd 5, N-(4-((6-amino-5-chloropyrimidin-4-yl)oxy)-2-fluorophenyl)-1-(4-fluorophenyl)-2-oxo-1,2-dihydropyridine-3-carboxamide]	6%	43%	92%	72%	0%	-8%
Nc1ncnc(Oc2ccc(NC(=O)c3cccn(-c4ccc(F)cc4)c3=O)cc2)c1F [Cmpd 6, N-(4-((6-amino-5-fluoropyrimidin-4-yl)oxy)phenyl)-1-(4-fluorophenyl)-2-oxo-1,2-dihydropyridine-3-carboxamide]	3%	79%	89%	69%	14%	14%
Nc1ncnc(Oc2ccc(NC(=O)c3cccn(-c4ccc(F)cc4)c3=O)c(F)c2)c1F [Cmpd 7, N-(4-((6-amino-5-fluoropyrimidin-4-yl)oxy)-2-fluorophenyl)-1-(4-fluorophenyl)-2-oxo-1,2-dihydropyridine-3-carboxamide]	6%	40%	80%	72%	4%	8%
